Among the data in BindingDB's records for doi:10.1111/cbdd.12751 (Shandong University, 2016) are IC50 values, retold here.

pIC50: −log10 of the molar value.

The target of this test is Gag-Pol polyprotein (Human immunodeficiency virus type 1 group M subtype B (isolate NY5), UniProt P12497). The test is described as follows: HIV-1 RT Inhibition Assay. To be noted: 37 °C. The procedure:
A reverse transcriptase (RT) assay kit produced by Roche was selected for the RT inhibition assay. All the reagents for performing the RT reaction came with the kit, and the ELISA procedures for RT inhibition assay were carried out following the description in the kit protocol. Briefly, the reaction mixture containing template/primer complex, viral nucleotides (dNTPs), and RT in the incubation buffer with or without inhibitors was incubated for 1 h at 37 °C. After that, the reaction mixture was transferred to a streptavidincoated microtiter plate and incubated for another 1 h at 37 °C to make sure that retranscriptional cDNA chain consisted of biotin-labeled dNTPs bound to streptavidin. Then, unbound dNTPs were removed using washing buffer and anti-DIG-POD working solution was added. After incubation for 1 h at 37 °C, the DIG-labeled dNTPs incorporated into cDNA were bound to the anti-DIG-POD antibody. The unbound anti-DIG-PODs were removed.
With `Cc1cc(C#N)cc(C)c1Oc1nc(Nc2ccc(C#N)cc2)nc(N)c1Br`, the pIC50 (as a rule, −log10 of the IC50, conventionally taken in molar units) was 6.43. The figure for `Cc1ccnc2c1NC(=O)c1cccnc1N2C1CC1` [BI-RG-587] is 6.16; for `NS(=O)(=O)c1ccc(NC(=O)CSc2nc3ncccc3n2-c2ccc(C3CC3)c3ccccc23)c(Br)c1` [N-(2-Bromo-4-sulfonamido-phenyl)-2-(1-(4-cyclopropylnaphthalen-1-yl)-1H-imidazo[4,5-b]pyridin-2-ylthio)acetamide (12)] it is 5.82.
